Counter-ions that a name gives are not always drawn.
System: C. albicans
Experiment: Broth microdilution assay of synergistic lethality with 4 μg/mL FLC (recovery on drug-free YPD)
Format: cell-based, Candida albicans
Conditions: not given

SMILES	Synergistic lethal concentrations [µM]
CO[C@H]1C[C@H](O[C@@H]2/C(C)=C/C[C@@H]3C[C@@H](C[C@]4(CC[C@H](C)[C@@H](C5CCCCC5)O4)O3)OC(=O)[C@@H]3C=C(C)/C(=N/O)[C@H]4OC/C(=C\C=C\[C@@H]2C)[C@]43O)O[C@@H](C)[C@@H]1O [Selamectin]	12.5
CNCC[C@H](Oc1cccc2ccccc12)c1cccs1.Cl [Duloxetine (hydrochloride)]	50

Same assay, conditions: concentration of the compound that is synergistically lethal with 4 μg/mL FLC; C. albicans; recovery on drug-free YPD

SMILES	Synergistic lethal concentrations [µM]
CC(C)(C)C(O)/C=C/c1ccc2c(c1)OCO2 (centres unmarked) [Stiripentol]	100
CN1CCc2c(c3ccccc3n2Cc2ccccc2)C1 [Mebhydrolin]	100
CCOC(=O)C1=C(COCCN)NC(C)=C(C(=O)OC)[C@@H]1c1ccccc1Cl.O=S(=O)(O)c1ccccc1 [Levamlodipine besylate]	100
O=C1NCCN1CCN1CCC(c2cn(-c3ccc(F)cc3)c3ccc(Cl)cc23)CC1 [Sertindole]	25
CN(C(=O)CN(CCO)CC(=O)N(C)C(C)(C)Cc1ccccc1)C(C)(C)Cc1ccccc1 [Oxethazaine]	50
COC(=O)C1=C(C#N)NC(C)=C(C(=O)OC(C)C)C1c1cccc([N+](=O)[O-])c1 (centres unmarked) [Nilvadipine]	100
CCCCCCCCCCCCCCCCOP(=O)([O-])OCC[N+](C)(C)C [Miltefosine]	100
COC(=O)[C@H]1[C@H]2C[C@@H]3c4[nH]c5cc(OC)ccc5c4CCN3C[C@H]2C[C@@H](OC(=O)c2cc(OC)c(OC)c(OC)c2)[C@@H]1OC [Reserpine]	50
CCCCCCc1ccc(O)cc1O [Hexylresorcinol]	12.5
CNCCCC12CCC(c3ccccc31)c1ccccc12.Cl [Maprotiline (hydrochloride)]	50
COC(=O)C1=C(C)NC(C)=C(C(=O)O[C@@H]2CCCN(Cc3ccccc3)C2)[C@@H]1c1cccc([N+](=O)[O-])c1.Cl (racemic) [Benidipine (hydrochloride)]	100
CN(C)CCC=C1c2ccccc2CCc2ccccc21.Cl [Amitriptyline (hydrochloride)]	100
Cc1ccc(C(=O)Nc2ccc(CN3CCN(C)CC3)c(C(F)(F)F)c2)cc1C#Cc1cnc2cccnn12 [Ponatinib]	100
Cc1ccc([C@@H]2O[C@H](CO)[C@@H](O)[C@H](O)[C@H]2O)cc1Cc1ccc(-c2ccc(F)cc2)s1 [Canagliflozin]	100
C=CC(=O)Nc1cc(Nc2nccc(-c3cn(C4CC4)c4ccccc34)n2)c(OC)cc1N(C)CCN(C)C [Almonertinib]	25
CN1CCC(=C2c3ccccc3C=Cc3ccccc32)CC1.Cl [Cyproheptadine (hydrochloride)]	50
OCCN(CCO)c1nc(N2CCCCC2)c2nc(N(CCO)CCO)nc(N3CCCCC3)c2n1 [Dipyridamole]	100
N=C(NCCCCCCNC(=N)NC(=N)Nc1ccc(Cl)cc1)NC(=N)Nc1ccc(Cl)cc1.O=C(O)[C@H](O)[C@@H](O)[C@H](O)[C@H](O)CO.O=C(O)[C@H](O)[C@@H](O)[C@H](O)[C@H](O)CO [Chlorhexidine (digluconate)]	6.25
Cc1cnc(Nc2ccc(OCCN3CCCC3)cc2)nc1Nc1cccc(S(=O)(=O)NC(C)(C)C)c1 [Fedratinib]	100
Cc1ccc2c(c1)[C@]13CCCC[C@@H]1[C@H](C2)N(C)CC3.O=P(O)(O)O [Dimemorfan (phosphate)]	100

SMILES	Synergistic lethal concentrations [µM]
CN1CCC(=C2c3ccccc3Sc3ccccc32)CC1 [Pimethixene maleate]	12.5
CN1C[C@H](CNC(=O)OCc2ccccc2)C[C@@H]2c3cccc4c3c(cn4C)C[C@H]21 [Metergoline]	100
CC(O)C(=O)O.CCOc1ccc2nc3cc(N)ccc3c(N)c2c1.O [Ethacridine (lactate monohydrate)]	100
O=C(CCCN1CC=C(n2c(=O)[nH]c3ccccc32)CC1)c1ccc(F)cc1 [Droperidol]	100
COc1ccccc1OCCNCC(O)COc1cccc2[nH]c3ccccc3c12 (centres unmarked) [Carvedilol]	100
CCCCc1oc2ccc(NS(C)(=O)=O)cc2c1C(=O)c1ccc(OCCCN(CCCC)CCCC)cc1 [Dronedarone]	100
COc1cc2ncnc(Nc3ccc(F)c(Cl)c3)c2cc1NC(=O)/C=C/CN1CCCCC1 [Dacomitinib]	100
N#Cc1ccc2c(c1)N(CCCN1CCC(O)CC1)c1ccccc1S2 [Pericyazine]	100
CN(C)C/C=C/C(=O)Nc1cc2c(Nc3ccc(F)c(Cl)c3)ncnc2cc1O[C@H]1CCOC1.O=C(O)/C=C\C(=O)O.O=C(O)/C=C\C(=O)O [Afatinib (dimaleate)]	100
CCN(CC)C(=S)SSC(=S)N(CC)CC [Disulfiram]	100
CSc1ccc2c(c1)N(CCC1CCCCN1C)c1ccccc1S2.Cl (centres unmarked) [Thioridazine (hydrochloride)]	100
CCCCCCCCCCCC[N+](C)(C)CCOc1ccccc1.[Br-] [Domiphen (bromide)]	0.1953
CC(C)c1nc(CN(C)C(=O)N[C@@H](CCN2CCOCC2)C(=O)N[C@H](CC[C@H](Cc2ccccc2)NC(=O)OCc2cncs2)Cc2ccccc2)cs1 [Cobicistat]	100
CC(C)(C)NC(=O)[C@@H]1C[C@@H]2CCCC[C@@H]2CN1C[C@@H](O)[C@H](Cc1ccccc1)NC(=O)[C@H](CC(N)=O)NC(=O)c1ccc2ccccc2n1 [Saquinavir]	50
CC=CC(=O)N(CC)c1ccccc1C (mixture of isomers) [Crotamiton]	100
CC[C@H](C)C(=O)O[C@H]1C[C@@H](C)C=C2C=C[C@H](C)[C@H](CC[C@@H]3C[C@@H](O)CC(=O)O3)[C@H]21 [Lovastatin]	100
CN1CCC(=C2c3ccccc3CCc3sccc32)CC1 [Pizotifen]	100
Cc1cc(CC(C)CC(C)(C)C)n(O)c(=O)c1.NCCO (centres unmarked) [Piroctone olamine]	100
CNCC[C@@H](Oc1ccccc1C)c1ccccc1.Cl [Atomoxetine (hydrochloride)]	100
COCCCC/C(=N\OCCN)c1ccc(C(F)(F)F)cc1.O=C(O)/C=C\C(=O)O [Fluvoxamine (maleate)]	100

SMILES	Synergistic lethal concentrations [µM]
C=CC(=O)Nc1cc(Nc2nccc(-c3cn(C4CC4)c4ccccc34)n2)c(OC)cc1N(C)CCN(C)C.Cl [Almonertinib (hydrochloride)]	12.5
O=C(O)CCc1nc(-c2ccccc2)c(-c2ccccc2)o1 [Oxaprozin]	100
Cl.Cl.Fc1ccc(C(c2ccc(F)cc2)N2CCN(C/C=C/c3ccccc3)CC2)cc1 [Flunarizine (dihydrochloride)]	50
[H]/N=C(\N/C(=N/[H])Nc1ccc(Cl)cc1)NC(C)C [Proguanil]	100
Cc1ccc([C@@H]2O[C@H](CO)[C@@H](O)[C@H](O)[C@H]2O)cc1Cc1ccc(-c2ccc(F)cc2)s1.O [Canagliflozin (hemihydrate)]	100
CCOc1ccc(Cc2cc([C@@H]3O[C@H](SC)[C@@H](O)[C@H](O)[C@H]3O)ccc2Cl)cc1 [Sotagliflozin]	100
O=C(O)/C=C/C(=O)O.OCCOCCN1CCN(C2=Nc3ccccc3Sc3ccccc32)CC1.OCCOCCN1CCN(C2=Nc3ccccc3Sc3ccccc32)CC1 [Quetiapine (hemifumarate)]	100
Br.Cc1ccc(Sc2ccccc2N2CCNCC2)c(C)c1 [Vortioxetine (hydrobromide)]	100
CN(C)CCC=C1c2ccccc2C=Cc2ccccc21.Cl [Cyclobenzaprine (hydrochloride)]	100
O=C(NC1CCN(CCCCC2(C(=O)NCC(F)(F)F)c3ccccc3-c3ccccc32)CC1)c1ccccc1-c1ccc(C(F)(F)F)cc1 [Lomitapide]	6.25
CN1CCc2c(c3ccccc3n2Cc2ccccc2)C1.CN1CCc2c(c3ccccc3n2Cc2ccccc2)C1.O=S(=O)(O)c1cccc2c(S(=O)(=O)O)cccc12 [Mebhydrolin (napadisylate)]	100
CCOC(=O)C1=C(COCCN)NC(C)=C(C(=O)OC)C1c1ccccc1Cl (centres unmarked) [Amlodipine]	100
CC1=CC(=O)c2ccccc2C1=O [Menadione]	100
CCCCCCCCN=c1ccn(CCCCCCCCCCn2ccc(=NCCCCCCCC)cc2)cc1.Cl.Cl [Octenidine (dihydrochloride)]	1.5625
CCCCCCOC(=O)NC(=N)c1ccc(NCc2nc3cc(C(=O)N(CCC(=O)OCC)c4ccccn4)ccc3n2C)cc1.CS(=O)(=O)O [Dabigatran etexilate (mesylate)]	50
O=C([O-])C[C@H](O)C[C@H](O)/C=C/c1c(C2CC2)nc2ccccc2c1-c1ccc(F)cc1.O=C([O-])C[C@H](O)C[C@H](O)/C=C/c1c(C2CC2)nc2ccccc2c1-c1ccc(F)cc1.[Ca+2] [Pitavastatin (Calcium)]	1.5625
CNCCCN1c2ccccc2CCc2ccccc21 [Desipramine hydrochloride]	100
C=CC(=O)Nc1cc(Nc2nccc(-c3cn(C)c4ccccc34)n2)c(OC)cc1N(C)CCN(C)C.CS(=O)(=O)O [Osimertinib mesylate]	50
COc1ccc2c(c1)c(CC(=O)O)c(C)n2C(=O)c1ccc(Cl)cc1 [Indomethacin]	100

Same assay, conditions: with 4 μg/mL FLC; tested 100 μM to 0.1953 μM; 30 °C, 48 h

SMILES	synergistic lethal concentration (converts FLC from fungistatic to fungicidal) [µM]
CC(C)n1c(/C=C/C(O)CC(O)CC(=O)O)c(-c2ccc(F)cc2)c2ccccc21 (centres unmarked) [fluvastatin sodium, reference compound]	≤ 6.25

Source: publication PMC11200976, “Pitavastatin Calcium Confers Fungicidal Properties to Fluconazole by Inhibiting Ubiquinone Biosynthesis and Generating Reactive Oxygen Species” (Antioxidants, 2024)
